In patent US20080175889A1, “METHOD AND COMPOSITION FOR COATING WOUNDS AND PROTECTING SKIN USING A POLYETHER POLYURETHANE SOLUTION” (priority 2007, published 2008):

How the values were obtained:
[1] = test system: animal's tissue; settings: solvent alone or containing dissolved PEPU polymer; compared to THF
[2] = cited from earlier work
[3] = test system: rat; settings: cited from earlier work
[4] = TWA; cited from earlier work
[5] = published literature; cited from earlier work

SMILES	penetration into an animal's tissue after applying the solvent onto the skin [1]	amount of solvent that can dissolve in water [2]	amount of water that can dissolve in the solvent ([2]; water in solvent)	LD-50 ([3]; rat model, reported for both skin contact and inhalation)	OSHA Permissible Exposure Limit and NIOSH Recommended Exposure limit [4]	carcinogenicity / teratogenicity [5]	genotoxicity [5]	skin irritation [5]	LD-50 (rats) ([3]; rats)
CC1CCCO1 (stereo not shown) [2-MeOX, 2-methyloxolane]	much less 2-MeOX compared to THF solvent can penetrate	approximately 14 % by weight	4%	approximately 6 g/kg					
C1CCOC1 [THF, tetrahydrofuran]		miscible, in all proportions			200 ppm	not considered a carcinogen or a teratogen	nor is it genotoxic	skin irritant	890 mg/kg
